This is an account of results in paper PMC11596972, “Synthesis and Antimicrobial Activity of 3-Alkylidene-2-Indolone Derivatives” (Molecules, 2024).

In assay [1] the test system is S. aureus 4220. The assay is described as follows: MIC, double dilution method, S. aureus 4220. It counts as cell-based. Particulars: Staphylococcus aureus, 4220, 24 h.
Assay [2] has as its system MRSA ATCC 43300. The assay is described as follows: MIC, double dilution method, MRSA ATCC 43300. It counts as cell-based, Methicillin-resistant Staphylococcus aureus. As to conditions: MRSA ATCC 43300, Gram-positive, 24 h culture.
The subject of assay [3] is P. aeruginosa CMCC 10211. Description: MIC, double dilution method, P. aeruginosa CMCC 10211. It counts as cell-based. Particulars: Pseudomonas aeruginosa.
In assay [4] the test system is E. coli ATCC 25922. The assay is described as follows: MIC, double dilution method, E. coli ATCC 25922. It is filed as cell-based. Particulars: Escherichia coli.
For assay [5], the system named is E. coli 1924. The assay is described as follows: MIC, double dilution method, E. coli 1924. It is filed as cell-based, Escherichia coli.
For assay [6], the system named is C. albicans CMCC 98001. The assay is described as follows: MIC, double dilution method, C. albicans CMCC 98001. It is filed as cell-based, Candida albicans. As to conditions: for MIC: C. albicans CMCC 98001, fungus, 24 h culture.
The test system of assay [7] is S. aureus ATCC 6538. Description: MIC, double dilution method, S. aureus ATCC 6538. As to conditions: Staphylococcus aureus, ATCC6538, 24 h. It counts as cell-based.
[8] abbreviates: S. aureus 4220, Gram-positive, 24 h culture, read-out: MIC.
Setting [9] is: Staphylococcus aureus, 24 h, read-out: MIC.
Setting [10] is: CMCC10211, P. aeruginosa CMCC 10211, Gram-negative, 24 h culture, read-out: MIC.
[11] abbreviates: ATCC25922, E. coli ATCC 25922, Gram-negative, 24 h culture, read-out: MIC.
Where [12] appears, read: Escherichia coli, E. coli 1924, Gram-negative, 24 h culture, read-out: MIC.
[13] abbreviates: Candida albicans, CMCC98001, 24 h, read-out: MIC.
The mark [14] stands for this setting: S. aureus ATCC 6538, Gram-positive, 24 h culture, read-out: MIC.

Molecules are shown by their SMILES. In brackets after ≈: the same amount, converted by molar mass. Read-outs that look alike come from different tables or passages of the source.

With `C/C(O)=C1/C(=O)N(C)c2ccc(C(F)(F)F)cc21` [Compound 5q, (Z)-3-(1-hydroxyethylidene)-1-methyl-5-(trifluoromethyl)indolin-2-one], the MIC (usually the smallest concentration in the dilution series that meets the test's criterion for growth inhibition) was 64 µg/mL (≈ 249 µM) in assay [1] (setting [8]); > 64 µg/mL in assay [2] (setting [9]); > 64 µg/mL in assay [3] (setting [10]); > 64 µg/mL in assay [4] (setting [11]); 16 µg/mL (≈ 62.2 µM) in assay [5] (setting [12]); > 64 µg/mL in assay [6] (setting [13]).
With `C/C(O)=C1/C(=O)N(C)c2cc(F)ccc21` [Compound 5f, (Z)-6-fluoro-3-(1-hydroxyethylidene)-1-methylindolin-2-one], the MIC in assay [1] (setting [8]) was > 64 µg/mL; in assay [7] (setting [14]) it was > 64 µg/mL; in assay [2] (setting [9]), > 64 µg/mL; in assay [3] (setting [10]), > 64 µg/mL; in assay [4] (setting [11]), > 64 µg/mL; in assay [5] (setting [12]) it was 32 µg/mL (≈ 154 µM). Also, the MIC in assay [6] (setting [13]) was 64 µg/mL (≈ 309 µM).
As to `C/C(O)=C1/C(=O)N(C)c2cc(C)ccc21` [Compound 5c, (Z)-3-(1-hydroxyethylidene)-1,6-dimethylindolin-2-one], the MIC in assay [1] (setting [8]) is > 64 µg/mL; in assay [7] (setting [14]), 64 µg/mL (≈ 315 µM); in assay [2] (setting [9]), > 64 µg/mL; in assay [3] (setting [10]), 64 µg/mL (≈ 315 µM); in assay [4] (setting [11]), 64 µg/mL (≈ 315 µM); in assay [5] (setting [12]), 16 µg/mL (≈ 78.7 µM). In addition, the MIC in assay [6] (setting [13]) came out at 16 µg/mL (≈ 78.7 µM).
Take `C/C(O)=C1/C(=O)N(C)c2c(F)cccc21` [Compound 5e, (Z)-7-fluoro-3-(1-hydroxyethylidene)-1-methylindolin-2-one]: the MIC was 64 µg/mL (≈ 309 µM) in assay [7] (setting [14]); 64 µg/mL (≈ 309 µM) in assay [2] (setting [9]); > 64 µg/mL in assay [3] (setting [10]); > 64 µg/mL in assay [4] (setting [11]); 16 µg/mL (≈ 77.2 µM) in assay [5] (setting [12]); 32 µg/mL (≈ 154 µM) in assay [6] (setting [13]).
For `C/C(O)=C1/C(=O)N(Cc2ccccc2)c2ccccc21` [Compound 5u, (Z)-1-benzyl-3-(1-hydroxyethylidene)indolin-2-one], the MIC in assay [2] (setting [9]) is 64 µg/mL (≈ 241 µM); in assay [3] (setting [10]) it was > 64 µg/mL; in assay [4] (setting [11]), 64 µg/mL (≈ 241 µM); in assay [5] (setting [12]), 2 µg/mL (≈ 7.54 µM); in assay [6] (setting [13]) it was 32 µg/mL (≈ 121 µM).
As to `OC(Cn1cncn1)(Cn1cncn1)c1ccc(F)cc1F` [Flu, Fluconazole, reference compound], the MIC in assay [1] (setting [8]), in assay [7] (setting [14]), in assay [2] (setting [9]), in assay [3] (setting [10]), in assay [4] (setting [11]) and in assay [5] (setting [12]) was > 64 µg/mL throughout. In assay [6] (setting [13]), the minimal inhibitory concentration (MIC) came out at 2 µg/mL (≈ 6.53 µM).
Turning to `C/C(O)=C1/C(=O)N(C)c2cc(C(F)(F)F)ccc21` [Compound 5r, (Z)-3-(1-hydroxyethylidene)-1-methyl-6-(trifluoromethyl)indolin-2-one], the MIC in assay [1] (setting [8]) was 64 µg/mL (≈ 249 µM); in assay [3] (setting [10]), > 64 µg/mL; in assay [4] (setting [11]) it was > 64 µg/mL; in assay [5] (setting [12]) it was > 64 µg/mL; in assay [6], 16 µg/mL (≈ 62.2 µM); in assay [6] (setting [13]), 8 to 16 µg/mL (≈ 31.1 to 62.2 µM). In addition, in assay [6] (C. albicans CMCC 98001), the “antifungal activity (class in words)” value is “moderate antifungal activity”.
On to `Cc1ccc(/C(O)=C2/C(=O)N(C)c3ccccc32)cc1` [Compound 10c, (Z)-3-(hydroxy(p-tolyl)methylene)-1-methylindolin-2-one], for which the MIC in assay [1] is 8 µg/mL (≈ 30.2 µM); in assay [7], 2 µg/mL (≈ 7.54 µM); in assay [2] it was 16 µg/mL (≈ 60.3 µM); in assay [2] (listed as 10v) it was 0.5 to 16 µg/mL; in assay [3] (CMCC10211, 24 h) it was > 64 µg/mL; in assay [4] (ATCC25922, 24 h) it was 64 µg/mL (≈ 241 µM). The MIC in assay [5] (Escherichia coli, 1924, 24 h) came to 8 µg/mL (≈ 30.2 µM); in assay [6] (Candida albicans, CMCC98001, 24 h) it was 64 µg/mL (≈ 241 µM).
`C/C(O)=C1/C(=O)N(C)c2c(C)cccc21` [Compound 5b, (Z)-3-(1-hydroxyethylidene)-1,7-dimethylindolin-2-one]: the minimum inhibitory concentration (MIC) in assay [1] (setting [8]) was > 64 µg/mL; in assay [7] (setting [14]), 64 µg/mL (≈ 315 µM); in assay [2] (setting [9]), > 64 µg/mL; in assay [3] (setting [10]), 64 µg/mL (≈ 315 µM); in assay [4] (setting [11]), 64 µg/mL (≈ 315 µM); in assay [5] (setting [12]), 32 µg/mL (≈ 157 µM). In assay [6] (setting [13]), the MIC is 32 µg/mL (≈ 157 µM).
Take `COc1ccc2c(c1)/C(=C(\C)O)C(=O)N2Cc1ccccc1` [Compound 5s, (Z)-1-benzyl-3-(1-hydroxyethylidene)-5-methoxyindolin-2-one]: the MIC in assay [1] (setting [8]) was 32 µg/mL (≈ 108 µM); in assay [7] (setting [14]), 64 µg/mL (≈ 217 µM); in assay [2] (setting [9]), 64 µg/mL (≈ 217 µM); in assay [3] (setting [10]), > 64 µg/mL; in assay [4] (setting [11]), > 64 µg/mL; in assay [5] (setting [12]), 16 µg/mL (≈ 54.2 µM). Also, in assay [6] (setting [13]), the MIC was > 64 µg/mL.
Consider `CCCN1C(=O)/C(=C(/C)O)c2ccccc21` [Compound 5v, (Z)-3-(1-hydroxyethylidene)-1-propylindolin-2-one], for which the MIC is 64 µg/mL (≈ 295 µM) in assay [1] (setting [8]); 64 µg/mL (≈ 295 µM) in assay [7] (setting [14]); > 64 µg/mL in assay [3] (setting [10]); > 64 µg/mL in assay [4] (setting [11]); 16 µg/mL (≈ 73.6 µM) in assay [5] (setting [12]); 32 µg/mL (≈ 147 µM) in assay [6] (setting [13]).
